Experimental data from patent EP4428122A1, “SORTILINE MODULATORS” (Vesper Bio Aps, priority 2023, dated 2024).

How the values were obtained:
Human (6-His)Sortilin = molecular target: T1, Human (6-His)Sortilin (Homo sapiens, UniProt Q99523); test: Human Sortilin GCI (Grating-Coupled Interferometry) binding assay; conditions: Creoptix WAVE-RAPID, single concentration, immobilised Human (6-His)Sortilin, 1:1 kinetic binding model; read-out: h-Sortilin GCI KD
T1 construct: purchased RnD Systems
T1 sequence (Q99523 78-831): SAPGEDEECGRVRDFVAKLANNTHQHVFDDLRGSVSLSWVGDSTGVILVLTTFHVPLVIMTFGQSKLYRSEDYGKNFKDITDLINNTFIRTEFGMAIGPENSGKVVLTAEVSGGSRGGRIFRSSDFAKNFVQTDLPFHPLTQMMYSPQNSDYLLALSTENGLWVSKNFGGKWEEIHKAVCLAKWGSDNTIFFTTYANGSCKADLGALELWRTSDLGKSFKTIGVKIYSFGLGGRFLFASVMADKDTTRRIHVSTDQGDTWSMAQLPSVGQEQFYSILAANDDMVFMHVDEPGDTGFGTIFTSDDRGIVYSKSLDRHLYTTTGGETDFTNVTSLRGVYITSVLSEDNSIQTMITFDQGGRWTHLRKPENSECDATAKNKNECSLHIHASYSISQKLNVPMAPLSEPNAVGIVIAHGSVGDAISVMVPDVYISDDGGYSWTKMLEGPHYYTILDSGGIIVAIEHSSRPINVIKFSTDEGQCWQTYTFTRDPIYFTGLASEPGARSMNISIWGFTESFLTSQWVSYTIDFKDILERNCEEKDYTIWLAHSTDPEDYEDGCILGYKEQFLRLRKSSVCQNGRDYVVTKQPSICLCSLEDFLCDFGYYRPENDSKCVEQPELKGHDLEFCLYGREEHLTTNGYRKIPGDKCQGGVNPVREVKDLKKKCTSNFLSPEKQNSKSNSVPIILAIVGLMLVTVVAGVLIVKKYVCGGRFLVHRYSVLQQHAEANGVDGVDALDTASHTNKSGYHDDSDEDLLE
Protocol: The exemplified compounds of the invention were tested in a Grating-Coupled Interferometry (GCI) Sortilin binding assay. The Equilibrium dissociation constant (KD) is a measure of the propensity of a complex (i.e: a ligand and receptor) to dissociate and is used to describe the affinity of an interaction between the constituents of the complex (i.e: a ligand and receptor). The skilled person will recognise that the lower the KD value, the less of the compound needed to achieve the desired effect, and as a result, the chances of undesirable off-target effects are reduced.
Compound affinity was determined by measuring the association and dissociation of compounds to Human (6-His)Sortilin (RnD Systems) using a Creoptix Wave instrument (Creoptix - Malvern Panalytical). Both Human (6-His)Sortilin immobilisation and compound evaluation were performed in HBS-N running buffer: 10 mM HEPES pH 7.4, 150 mM NaCl, 1 % DMSO - Cytiva which was filtered and degassed for 15 minutes before use.
A 4PCH WAVEchip (Creoptix - Malvern Panalytical) was conditioned prior to immobilisiation using 0.2x HBS-N running buffer with 0.1 M Borate pH 9.0, 1 M NaCl (Xantec Bioanalytics) injected across all flow cells. A buffer exchange was performed to 1x HBS-N running buffer and Human (6-His)Sortilin was immobililised in pH 5.0 Acetate solution (Cytiva) via amine coupling following EDC/NHS (Cytiva) surface activation and then passivated via injection of 50 mM Tris pH 7.4.
Compounds were tested in 'WAVE-RAPID' assays at a single concentration (usually: 1 µM, 10 µM or 100 µM) in time-response format (short pulses of increasing duration) using either 'Weak-Binders' (Settings: 400 µl/min flow rate, 40 Hz acquisiton rate, 5 seconds association time and 20 seconds dissociation time) or 'Intermediate Binders' (Settings: 100 µl/min flow rate, 10 Hz acquisiton rate, 25 seconds association time and 300 seconds dissociation time) settings. Which was deemed most appropriate was based upon the affinity and kinetics of the compound tested.
DMSO calibration was performed as per manufacturers requirements by injection of running buffer containing DMSO 0.5% above that of the running buffer DMSO (1.5 % in that instance) every 20 cycles. All data was double referenced (blank and reference-channel subtracted) with KD values calculated by fitting to a `1:1 kinetic' binding model using 'WAVEcontrol' software (Creoptix - Malvern Panalytical).

h-Sortilin = molecular target: T2, h-Sortilin (Homo sapiens, UniProt Q99523); test: Neurotensin scintillation proximity assay (SPA), displacement of [3H]-neurotensin binding; conditions: 150 nM 6his-Sortilin, 5 nM [3H]-Neurotensin, 8 concentrations, average of at least 2 determinations
T2 sequence (Q99523 78-831): T1 sequence (Q99523 78-831)
Protocol: The exemplified compounds of the invention were tested in a Neurotensin (NTS) scintillation proximity assay (SPA). NTS, which is a 13 amino acid neuropeptide, is a sortilin ligand. The IC50 is a measure of the amount of the compound required to inhibit the binding of NTS to sortilin by 50%. The skilled person will recognise that the lower the IC50 value, the less of the compound needed to achieve the desired effect, and as a result, the chances of undesirable off-target effects are reduced.
Compound affinity was determined by measuring the displacement of [^3H]-neurotensin binding to h-Sortilin in SPA format. Total volume of 40 µl in 50 mM HEPES pH 7.4 assay buffer containing 100 mM NaCl, 2.0 mM CaCl2, 0.1% BSA and 0.1% Tween-20. Compound pre-incubation for 30 minutes at room temperature with 150 nM of 6his-Sortilin before 5 nM [3H]-Neurotensin and Ni chelate imaging beads (Perkin Elmer) were added, after 6 hours the plate was read on a ViewLux with 360 s exposure time. Dose-response evaluation of compounds was performed with 8 concentrations of drugs (covering 3 decades). IC50 values were calculated by nonlinear regression using the sigmoid concentration-response (variable slope) using CDD Vault software. All values reported are average of at least 2 determinations.

Compound | Kd (Human (6-His)Sortilin) | IC50 (h-Sortilin)
CC(C)(C)CCC(C)(NCc1ccc2c(c1)CCOC2)C(=O)O (racemic) [Example 7, 2-{[(6-isochromanyl)methyl]amino}-2,5,5-trimethylhexanoic acid] | 509 nM | 
CC(C)(C)CCC(C)(NCc1ccc2c(c1)OCCC2)C(=O)O (racemic) [Example 5, 2-{[(7-chromanyl)methyl]amino}-2,5,5-trimethylhexanoic acid] | 713 nM | 
CC(C)(C)CCC(C)(NCc1ccc2c(c1)COCC2)C(=O)O (racemic) [Example 8, 2-{[(7-isochromanyl)methyl]amino}-2,5,5-trimethylhexanoic acid] | 587 nM | 
CC(C)(C)CCC(C)(NCc1ccc2c(c1)CCCC2)C(=O)O (stereo not drawn) [Example 1, 2,5,5-trimethyl-2-(((5,6,7,8-tetrahydronaphthalen-2-yl)methyl)amino)hexanoic acid] | 304 nM | 740 nM
CC(C)(C)CCC(C)(NCc1ccc2c(c1)CCC2)C(=O)O (racemic) [Example 4, 2-{[(5-indanyl)methyl]amino}-2,5,5-trimethylhexanoic acid] |  | 1070 nM
CC(C)(C)CC[C@](C)(NCc1ccc2c(c1)CCCC2)C(=O)O [Example 2, (S)-2,5,5-trimethyl-2-(((5,6,7,8-tetrahydronaphthalen-2-yl)methyl)amino)hexanoic acid] | 79 nM | 440 nM
CC(C)(C)CCC(C)(NCc1ccc2c(c1)CCCO2)C(=O)O (racemic) [Example 6, 2-{[(6-chromanyl)methyl]amino}-2,5,5-trimethylhexanoic acid] | 760 nM | 
